Measurements reported in patent US20120128860A1, “PREPARATION OF VEGETABLE MATERIAL AND FOOD PRODUCTS” (priority 2009, published 2012).

Test system: tobacco plants (Nicotiana tabacum)
Experiment: Chlorophyll a and b content of tobacco leaves after pre-harvest kinetin treatment, soaking and storage
Assay type: in vivo
Set-up: reduction after 27 d (chlorophyll): concentration or dose not given beside the values
Conditions: cytokinin 5 days pre-harvest; for reduction after 27 d (chlorophyll): 27 d storage; for chlorophyll level after 0 d storage / chlorophyll level after 3 d storage / chlorophyll level after 7 d storage / chlorophyll level after 10 d storage / chlorophyll level after 14 d storage / chlorophyll level after 20 d storage / chlorophyll level after 27 d storage: stored 4° C. dark
Description: Determination of chlorophyll contents of fresh leaves using a spectrophotometer. Procedure: • 1. Homogenisation of plant tissue (100 mg) in liquid nitrogen. For each data point at least three biological samples were harvested. • 2. Addition of 400 microliter acetone in 10 micromolar KOH and subsequent vortexing • 3. Centrifugation of the homogenate at 13,000 rpm for 10 min to remove cell debris and proteins • 4. Transfer of the supernatant into new test tubes • 5. Addition 200 microliter of extraction mixture to the pellet as mentioned above and vortexing • 6. Centrifugation of the homogenate at 13,000 rpm for 10 min • 7. Mix of the supernatant with the supernatant from step 4 • 8. Repeat of steps 5-7 three times until the pellet is completely white • 9. Dilution of the sample 1:10 in acetone and measurement of absorption at 664, 646/7 and 750 nm in a spectrophotometer. All absorbance measurements at the indicated wavelength need subtraction of the absorbance at 750 nm. Calculation of the chlorophyll contents by comparing with calibration curves.
Determination of chlorophyll contents of leaves by HPLC. Procedure: • 1. Homogenisation of 100 mg plant material in liquid nitrogen in a test tube • 2. Addition of 500 microliter acetone with 10 micromolar KOH and vortexing. • 3. Centrifugation of the suspension for 10 min at 4° C. at 13.000 rpm. • 4. The supernatant is transferred into new test tube • 5. Addition of 500 microliter acetone to the pellet and resuspension of the pellet • 6. Centrifugation for 10 min at 4° C. at 13.000 rpm. • 7. The supernatant is combined with the supernatant from step 4 • 8. The samples are vortexed and centrifuged for 10 min at 4° C. at 13,000 rpm. • 9. A 40 microliter aliquot of the extract is mixed with 160 microliter water • 10. The sample is transferred into a HPLC vial • 11. An aliquot of 10-100 microliter is injected into the HPLC column (RP C18 column) • 12. Running buffers: Acetonitril/H2O/triethylamine (1798:200:2) and ethyl acetate
Objective of the experiments: to combine effects of pre-harvest treatment of tobacco plants with the growth hormone kinetin and subsequently soaking with a buffer solution on the stability of chlorophyll after heat treatment followed by different storage periods.
A 1 mM kinetin solution in water was made by dissolving kinetin dropwise with 10 microliter 1M NaOH, then the solution was neutralized to pH 7.0 with HCl. This 1 mM kinetin aqueous solution was injected into the leaves of growing tobacco plants (Nicotiana tabacum). The application of cytokinin was repeated once a day for five successive days. At day 7, tobacco leaves were harvested and stored in aluminium foils. Control plants were treated with the same solution at pH 7.0 (in water), but without kinetin.
After harvest, leaves of the harvested plants (both treated with cytokinin, as well as the control plants) were separated in batches, which were subsequently treated at different temperatures in one the following ways: • 1. leaves were soaked in tap water during 1 minute at room temperature; • 2. leaves were soaked in a buffer solution of pH 7.2 during 1 minute at room temperature; • 3. leaves were soaked in tap water during 1 minute at 70° C.; • 4. leaves were soaked in a buffer solution of pH 7.2 during 1 minute at 70° C.; • 5. leaves were soaked in tap water during 1 minute at 90° C.; • 6. leaves were soaked in a buffer solution of pH 7.2 during 1 minute at 90° C.;
Immediately after each of these steps, the soaked leaves were cooled shortly in a cold tap water bath at 3° C.
The aqueous buffer solution contained 137 mM NaCl, 2.7 mM KCL, 10 mM Na2HPO4 and 2 mM KH2PO4, and was adjusted to pH 7.2 with more hydrogen phosphate or dihydrogenphosphate if required.
Finally the chlorophyll content of the leaves was quantified after storage in tissue papers at 4° C. in the dark at various moments in time. […]

[1] = soaked 1 min in buffer pH 7.2 at 70° C.
[2] = soaked 1 min in buffer pH 7.2 at 90° C.
[3] = soaked 1 min in buffer pH 7.2 at room temperature
[4] = soaked 1 min in water at 70° C.
[5] = soaked 1 min in water at 90° C.
[6] = soaked 1 min in water at room temperature

Q: With `c1coc(CNc2ncnc3[nH]cnc23)c1` [cytokinin, 6-furfurylaminopurine] as the compound, how does the “reduction after 27 d (chlorophyll)” value [1] read?
A: 11%

Q: And the “chlorophyll level after 0 d storage” value [1]?
A: 18 micromole per gram fresh weight

Q: And the “chlorophyll level after 3 d storage” value [1]?
A: 17.5 micromole per gram fresh weight

Q: What about the “chlorophyll level after 7 d storage” value [1] of the same compound?
A: 17.2 micromole per gram fresh weight

Q: What about the “chlorophyll level after 10 d storage” value [1] of the same compound?
A: 17 micromole per gram fresh weight

Q: And the “chlorophyll level after 14 d storage” value [1]?
A: 17 micromole per gram fresh weight

Q: What about the “chlorophyll level after 20 d storage” value [1] of the same compound?
A: 16.8 micromole per gram fresh weight

Q: And the “chlorophyll level after 27 d storage” value [1]?
A: 16 micromole per gram fresh weight

Q: And the “chlorophyll level after 0 d storage” value [2]?
A: 18 micromole per gram fresh weight

Q: What about the “chlorophyll level after 3 d storage” value [2] of the same compound?
A: 17.5 micromole per gram fresh weight

Q: What about the “chlorophyll level after 7 d storage” value [2] of the same compound?
A: 17 micromole per gram fresh weight

Q: What about the “chlorophyll level after 10 d storage” value [2] of the same compound?
A: 16.5 micromole per gram fresh weight

Q: What about the “chlorophyll level after 14 d storage” value [2] of the same compound?
A: 16 micromole per gram fresh weight

Q: What about the “chlorophyll level after 20 d storage” value [2] of the same compound?
A: 15.5 micromole per gram fresh weight

Q: What about the “chlorophyll level after 27 d storage” value [2] of the same compound?
A: 15 micromole per gram fresh weight

Q: What about the “reduction after 27 d (chlorophyll)” value [3] of the same compound?
A: 17%

Q: What about the “chlorophyll level after 0 d storage” value [3] of the same compound?
A: 18.5 micromole per gram fresh weight

Q: What about the “chlorophyll level after 3 d storage” value [3] of the same compound?
A: 17.5 micromole per gram fresh weight

Q: And the “chlorophyll level after 7 d storage” value [3]?
A: 16.5 micromole per gram fresh weight

Q: And the “chlorophyll level after 10 d storage” value [3]?
A: 15.5 micromole per gram fresh weight

Q: What about the “chlorophyll level after 14 d storage” value [3] of the same compound?
A: 16 micromole per gram fresh weight

Q: What about the “chlorophyll level after 20 d storage” value [3] of the same compound?
A: 15.5 micromole per gram fresh weight

Q: And the “chlorophyll level after 27 d storage” value [3]?
A: 15 micromole per gram fresh weight

Q: What about the “chlorophyll level after 0 d storage” value [4] of the same compound?
A: 17.5 micromole per gram fresh weight

Q: And the “chlorophyll level after 3 d storage” value [4]?
A: 17 micromole per gram fresh weight

Q: And the “chlorophyll level after 7 d storage” value [4]?
A: 16.5 micromole per gram fresh weight

Q: And the “chlorophyll level after 10 d storage” value [4]?
A: 16.5 micromole per gram fresh weight

Q: What about the “chlorophyll level after 14 d storage” value [4] of the same compound?
A: 16 micromole per gram fresh weight

Q: And the “chlorophyll level after 20 d storage” value [4]?
A: 16 micromole per gram fresh weight

Q: And the “chlorophyll level after 27 d storage” value [4]?
A: 15.5 micromole per gram fresh weight

Q: And the “reduction after 27 d (chlorophyll)” value [5]?
A: 50%

Q: And the “chlorophyll level after 0 d storage” value [5]?
A: 15 micromole per gram fresh weight

Q: What about the “chlorophyll level after 3 d storage” value [5] of the same compound?
A: 13.5 micromole per gram fresh weight

Q: And the “chlorophyll level after 7 d storage” value [5]?
A: 12.5 micromole per gram fresh weight

Q: What about the “chlorophyll level after 10 d storage” value [5] of the same compound?
A: 11 micromole per gram fresh weight

Q: What about the “chlorophyll level after 14 d storage” value [5] of the same compound?
A: 9.8 micromole per gram fresh weight

Q: And the “chlorophyll level after 20 d storage” value [5]?
A: 8.8 micromole per gram fresh weight

Q: What about the “chlorophyll level after 27 d storage” value [5] of the same compound?
A: 7.5 micromole per gram fresh weight

Q: What about the “reduction after 27 d (chlorophyll)” value [6] of the same compound?
A: 9%

Q: And the “chlorophyll level after 0 d storage” value [6]?
A: 18 micromole per gram fresh weight

Q: What about the “chlorophyll level after 3 d storage” value [6] of the same compound?
A: 17.8 micromole per gram fresh weight

Q: What about the “chlorophyll level after 7 d storage” value [6] of the same compound?
A: 17.2 micromole per gram fresh weight

Q: And the “chlorophyll level after 10 d storage” value [6]?
A: 16.5 micromole per gram fresh weight

Q: And the “chlorophyll level after 14 d storage” value [6]?
A: 16.2 micromole per gram fresh weight

Q: And the “chlorophyll level after 20 d storage” value [6]?
A: 16 micromole per gram fresh weight

Q: What about the “chlorophyll level after 27 d storage” value [6] of the same compound?
A: 16 micromole per gram fresh weight
